Assay [1] concerns the target T1, 3-phosphoinositide-dependent protein kinase 1 (Homo sapiens, UniProt O15530).
T1 sequence (O15530 whole entry): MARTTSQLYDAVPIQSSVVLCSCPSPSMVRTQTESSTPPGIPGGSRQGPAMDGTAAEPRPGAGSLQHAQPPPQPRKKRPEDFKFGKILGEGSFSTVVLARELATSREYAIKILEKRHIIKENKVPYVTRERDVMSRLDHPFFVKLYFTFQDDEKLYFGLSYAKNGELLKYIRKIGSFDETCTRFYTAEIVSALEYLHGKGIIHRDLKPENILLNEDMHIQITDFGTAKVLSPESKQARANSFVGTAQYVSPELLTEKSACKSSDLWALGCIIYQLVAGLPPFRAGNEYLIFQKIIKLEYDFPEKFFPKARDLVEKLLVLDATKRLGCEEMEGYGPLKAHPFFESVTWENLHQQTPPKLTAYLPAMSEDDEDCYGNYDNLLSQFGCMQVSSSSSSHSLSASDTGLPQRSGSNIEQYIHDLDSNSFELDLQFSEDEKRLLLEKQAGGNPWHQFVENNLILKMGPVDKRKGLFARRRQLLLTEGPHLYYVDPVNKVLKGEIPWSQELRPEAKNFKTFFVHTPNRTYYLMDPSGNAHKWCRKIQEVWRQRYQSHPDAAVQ
The experiment in a line: Inhibition of PDK1.

A further assay addresses T2, Aurora kinase A (Homo sapiens, UniProt O14965).
T2 sequence (O14965 whole entry): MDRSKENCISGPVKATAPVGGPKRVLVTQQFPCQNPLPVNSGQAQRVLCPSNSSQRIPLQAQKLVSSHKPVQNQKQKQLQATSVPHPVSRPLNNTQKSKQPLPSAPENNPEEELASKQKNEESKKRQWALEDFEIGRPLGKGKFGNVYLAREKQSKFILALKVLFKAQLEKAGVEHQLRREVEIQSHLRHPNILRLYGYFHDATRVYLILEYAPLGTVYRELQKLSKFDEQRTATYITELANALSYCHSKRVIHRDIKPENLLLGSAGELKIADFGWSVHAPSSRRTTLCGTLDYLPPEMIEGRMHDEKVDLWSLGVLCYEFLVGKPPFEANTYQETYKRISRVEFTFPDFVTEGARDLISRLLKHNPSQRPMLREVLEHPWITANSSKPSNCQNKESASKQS
The assay is described as follows: Inhibition of aurora A.

A further assay addresses Aurora kinase B (Homo sapiens, UniProt Q96GD4). The experiment in a line: Inhibition of aurora B.
For a further assay, the target named is T3, TGF-beta receptor type-1 (Homo sapiens, UniProt P36897).
T3 sequence (P36897 whole entry): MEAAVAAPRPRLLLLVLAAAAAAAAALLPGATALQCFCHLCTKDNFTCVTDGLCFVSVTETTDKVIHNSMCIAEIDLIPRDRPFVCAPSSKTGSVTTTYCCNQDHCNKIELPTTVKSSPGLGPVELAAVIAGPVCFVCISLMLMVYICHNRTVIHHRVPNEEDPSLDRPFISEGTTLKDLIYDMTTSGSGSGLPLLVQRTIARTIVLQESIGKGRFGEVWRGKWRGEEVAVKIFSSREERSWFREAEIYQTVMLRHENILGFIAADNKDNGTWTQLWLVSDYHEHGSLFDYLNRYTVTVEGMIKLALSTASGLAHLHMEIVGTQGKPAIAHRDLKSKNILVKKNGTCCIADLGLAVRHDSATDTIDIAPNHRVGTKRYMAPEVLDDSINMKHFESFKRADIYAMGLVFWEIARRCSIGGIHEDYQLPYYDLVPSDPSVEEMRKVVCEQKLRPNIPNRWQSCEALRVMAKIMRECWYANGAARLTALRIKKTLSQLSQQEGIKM
The experiment in a line: Inhibition of ALK5. As to conditions: read-out: pIC50 (converted).

Assay [2] deals with Rho-associated protein kinase 1 (Homo sapiens, UniProt Q13464). The assay is described as follows: Inhibition of ROCK1.
Assay [3] has as its target T1, 3-phosphoinositide-dependent protein kinase 1. The assay is described as follows: Inhibition of PDK1-mediated AKT phosphorylation at Thr308 residue in human PC3 cells by ELISA. Type of assay: cell-based, PC-3. A general note: In an ELISA, binding on a coated surface is turned into a signal by an enzyme label.
For assay [4] the target is unchanged. The experiment in a line: Inhibition of PDK1-mediated RSK phosphorylation at Ser221 residue in human PC3 cells by ELISA. Type of assay: cell-based, PC-3.
In a further assay the test system is K562. The experiment in a line: Antiproliferative activity against human K562 cells. The format is functional, cell-based.
Another assay deals with OCI-AML2. The experiment in a line: Antiproliferative activity against human OCI-AML2 cells. Type of assay: functional, cell-based.
Assay [5] can be described thus: Antiproliferative activity against human OCI-AML3 cells. Type of assay: functional, cell-based. As to conditions: OCI-AML-3.
In the next assay the test system is HEL. The experiment in a line: Antiproliferative activity against human HEL 92.1.7 cells. The format is functional, cell-based.
The nature of assay [6]: Antiproliferative activity against human F-36P cells. The format is functional, cell-based.

Chain of Rho-associated protein kinase 1 (Q13464 whole entry): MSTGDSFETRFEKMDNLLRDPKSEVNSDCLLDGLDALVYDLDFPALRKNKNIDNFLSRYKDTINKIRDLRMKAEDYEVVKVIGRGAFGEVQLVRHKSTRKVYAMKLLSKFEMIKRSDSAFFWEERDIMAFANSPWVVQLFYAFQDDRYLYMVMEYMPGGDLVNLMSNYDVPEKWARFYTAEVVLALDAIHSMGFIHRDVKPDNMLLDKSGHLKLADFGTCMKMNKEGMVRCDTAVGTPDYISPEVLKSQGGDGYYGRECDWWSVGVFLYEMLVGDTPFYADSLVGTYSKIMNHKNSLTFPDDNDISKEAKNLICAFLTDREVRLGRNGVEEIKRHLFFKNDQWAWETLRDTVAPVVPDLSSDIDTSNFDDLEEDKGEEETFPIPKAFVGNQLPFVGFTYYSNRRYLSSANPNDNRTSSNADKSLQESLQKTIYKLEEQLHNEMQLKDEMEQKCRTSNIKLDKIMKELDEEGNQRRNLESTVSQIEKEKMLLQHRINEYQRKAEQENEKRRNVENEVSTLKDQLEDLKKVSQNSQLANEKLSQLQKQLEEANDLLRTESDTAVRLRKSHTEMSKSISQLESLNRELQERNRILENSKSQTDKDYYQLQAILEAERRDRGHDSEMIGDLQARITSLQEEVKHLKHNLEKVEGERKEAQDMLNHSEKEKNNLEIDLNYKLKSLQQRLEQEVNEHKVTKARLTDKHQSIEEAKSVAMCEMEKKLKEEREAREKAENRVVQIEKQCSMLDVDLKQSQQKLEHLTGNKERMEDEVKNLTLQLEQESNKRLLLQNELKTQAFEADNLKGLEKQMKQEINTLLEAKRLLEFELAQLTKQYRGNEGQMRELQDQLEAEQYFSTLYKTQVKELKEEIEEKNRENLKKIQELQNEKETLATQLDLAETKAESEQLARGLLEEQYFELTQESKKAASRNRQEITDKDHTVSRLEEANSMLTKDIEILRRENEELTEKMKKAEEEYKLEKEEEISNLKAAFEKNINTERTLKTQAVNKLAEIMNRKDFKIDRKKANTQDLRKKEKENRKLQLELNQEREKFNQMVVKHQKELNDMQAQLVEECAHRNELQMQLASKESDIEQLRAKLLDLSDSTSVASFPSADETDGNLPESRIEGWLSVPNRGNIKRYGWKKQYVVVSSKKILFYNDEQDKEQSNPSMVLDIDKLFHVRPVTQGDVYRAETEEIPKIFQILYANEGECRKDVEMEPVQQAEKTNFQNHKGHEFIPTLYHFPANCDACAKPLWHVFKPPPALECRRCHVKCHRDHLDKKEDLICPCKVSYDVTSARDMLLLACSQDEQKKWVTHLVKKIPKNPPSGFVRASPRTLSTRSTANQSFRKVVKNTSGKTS
Chain of Aurora kinase B (Q96GD4 whole entry): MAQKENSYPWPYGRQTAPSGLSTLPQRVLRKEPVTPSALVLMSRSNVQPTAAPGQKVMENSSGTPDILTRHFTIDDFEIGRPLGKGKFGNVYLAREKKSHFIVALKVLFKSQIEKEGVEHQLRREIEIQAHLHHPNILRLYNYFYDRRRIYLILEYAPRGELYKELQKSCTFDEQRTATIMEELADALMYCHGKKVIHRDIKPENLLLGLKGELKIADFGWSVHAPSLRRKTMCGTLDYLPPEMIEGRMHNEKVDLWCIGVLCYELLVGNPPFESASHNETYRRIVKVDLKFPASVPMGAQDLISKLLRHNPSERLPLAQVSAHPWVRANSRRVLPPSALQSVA

As to `CC[C@@H]1CO[C@H](C(=O)Nc2ccccc2)CN1c1cc(-c2ccc3c(N)n[nH]c3c2)nc(NC)n1`, the IC50 was 3.16 nM in assay [1]; 7940 nM on Aurora kinase A; 1580 nM on Aurora kinase B; greater than 10000 nM on TGF-beta receptor type-1; 3160 nM in assay [2]; 57 nM in [3]. This compound also registered an IC50 in assay [4] of 88 nM.
As for `C[C@@H]1C[C@@H](N(C)C(=O)OC(C)(C)C)CN(c2cc(-c3ccc4c(N)n[nH]c4c3)nc(N)n2)C1`, the IC50 in [1] is 0.794 nM; against Aurora kinase A, 126 nM; on Aurora kinase B, 251 nM; at TGF-beta receptor type-1, greater than 10000 nM; in assay [2] it was greater than 10000 nM; in assay [3], 9 nM. The IC50 in [4] was 19 nM; in the assay on K562 it was 17000 nM; in the assay with OCI-AML2, 380 nM; in [5], 240 nM; in the assay on HEL, 18000 nM; in [6] it was 190 nM.
For the compound `CNc1nc(-c2ccc3c(N)n[nH]c3c2)cc(N2C[C@@H](C(=O)NC3CCCCC3)OC[C@H]2C)n1`, the IC50 in assay [1] is 3.16 nM; against Aurora kinase A, greater than 10000 nM; against Aurora kinase B it was 5010 nM; at TGF-beta receptor type-1, greater than 10000 nM; in [2], greater than 10000 nM; in assay [3] it was 24 nM. The IC50 in assay [4] was 30 nM; with K562, greater than 30000 nM; with OCI-AML2 it was 460 nM; in [5] it was 690 nM; in the assay with HEL, 19000 nM; in assay [6] it was 390 nM.
Take `C[C@@H]1CC[C@H](C(=O)NC2CCCCC2)CN1c1cc(-c2ccc3c(N)n[nH]c3c2)nc(N)n1`: the IC50 is 7.94 nM in [1]; 5010 nM on Aurora kinase A; 1000 nM on Aurora kinase B; greater than 10000 nM at TGF-beta receptor type-1; 631 nM in assay [2]; 472 nM in assay [3]. Also, the IC50 in [4] was 316 nM.
For the compound `C[C@@H]1C[C@@H](NC(=O)OC(C)(C)C)CN(c2cc(-c3ccc4c(N)[nH]nc4c3)nc(N)n2)C1`, the IC50 is 398 nM at Aurora kinase A; 1580 nM against Aurora kinase B; greater than 10000 nM at TGF-beta receptor type-1; greater than 10000 nM in assay [2]; 24000 nM in the assay on K562; 690 nM in the assay with OCI-AML2. Also, the IC50 turned out to be 400 nM in assay [5], 18000 nM in the assay on HEL and 820 nM in [6].
On to `CC[C@@H]1CO[C@H](C(=O)NC2CCCCC2)CN1c1cc(-c2ccc3c(N)n[nH]c3c2)nc(NC)n1`, for which the IC50 is 6.31 nM in [1]; greater than 10000 nM against Aurora kinase A; 1580 nM at Aurora kinase B; greater than 10000 nM at TGF-beta receptor type-1; greater than 10000 nM in assay [2]; 85 nM in assay [3]. Further, the IC50 was 102 nM in [4]; greater than 30000 nM in the assay with K562; 890 nM in the assay with OCI-AML2; 760 nM in assay [5]; 16000 nM with HEL; 460 nM in [6].
`C[C@@H]1C[C@@H](N(C)C(=O)CC(C)(C)C)CN(c2cc(-c3ccc4c(N)n[nH]c4c3)nc(N)n2)C1`: the IC50 in assay [1] was 0.631 nM; against Aurora kinase A, 63.1 nM; against Aurora kinase B, 200 nM; on TGF-beta receptor type-1, greater than 10000 nM; in [2], greater than 10000 nM; in [3] it was 22 nM. Further, the IC50 in [4] was found to be 116 nM.
With `Nc1nc(-c2ccccc2)cc(-c2ccc3c(N)n[nH]c3c2)n1`, the IC50 in [1] was 200 nM; against Aurora kinase A, 1580 nM; at Aurora kinase B, 2000 nM; on TGF-beta receptor type-1, 3160 nM; in [2] it was greater than 10000 nM.
For the compound `CC(C)(C)OC(=O)NC1CCCN(c2cc(-c3ccc4c(N)n[nH]c4c3)nc(N)n2)C1` (racemic), the IC50 in assay [1] was 50.1 nM; against Aurora kinase A it was 1260 nM; against Aurora kinase B it was 398 nM; at TGF-beta receptor type-1, greater than 10000 nM; in assay [2] it was greater than 10000 nM.
Consider `Nc1nc(-c2ccc3c(N)n[nH]c3c2)cc(N2CCC[C@H](C(=O)NC3CCCC3)C2)n1`, for which the IC50 in assay [1] is 126 nM; at Aurora kinase A it was greater than 10000 nM; on Aurora kinase B, greater than 10000 nM; on TGF-beta receptor type-1 it was greater than 10000 nM; in [2] it was greater than 10000 nM.
In the case of `CNc1cc(-c2ccc3c(N)n[nH]c3c2)nc(N)n1`, the IC50 in assay [1] is 79.4 nM; on Aurora kinase A it was 3160 nM; against Aurora kinase B, 12600 nM; at TGF-beta receptor type-1 it was 398 nM; in assay [2], 7940 nM.
For the compound `CN(C)c1cc(-c2ccc3c(N)n[nH]c3c2)nc(N)n1`, the IC50 in assay [1] is 501 nM; against Aurora kinase A it was greater than 10000 nM; at Aurora kinase B, greater than 10000 nM; at TGF-beta receptor type-1 it was 5010 nM; in assay [2] it was greater than 10000 nM.
On to `CC(C)(C)OC(=O)N[C@@H]1CCCN(c2cc(-c3ccc4c(N)n[nH]c4c3)nc(N)n2)C1`, for which the IC50 in [1] was 25.1 nM; against Aurora kinase A, 1580 nM; on Aurora kinase B it was 5010 nM; on TGF-beta receptor type-1, greater than 10000 nM; in assay [2], greater than 10000 nM.
Take `CNc1nc(-c2ccc3c(N)n[nH]c3c2)cc(N2C[C@@H](C(=O)Nc3ccccc3)CC[C@H]2C)n1`: the IC50 in [1] was 1.58 nM; at Aurora kinase A it was greater than 10000 nM; on Aurora kinase B, 2000 nM; on TGF-beta receptor type-1 it was greater than 10000 nM; in assay [2], 3160 nM; in assay [3], 165 nM. The IC50 came to 655 nM in [4]; 8000 nM with K562; 580 nM in the assay on OCI-AML2; 650 nM in assay [5]; 12000 nM in the assay on HEL; 460 nM in assay [6].
With `C[C@@H]1CCCCN1c1cc(-c2ccc3c(N)n[nH]c3c2)nc(N)n1`, the IC50 in assay [1] was 126 nM; on Aurora kinase A, greater than 10000 nM; against Aurora kinase B it was 25100 nM; at TGF-beta receptor type-1 it was 7940 nM; in assay [2] it was greater than 10000 nM.

Values taken from ChEMBL document CHEMBL1765070, “Structure-based design of potent and selective 3-phosphoinositide-dependent kinase-1 (PDK1) inhibitors” (J Med Chem, 2011).
